{
  "source": "paper PMC10458458",
  "about": "“Characterization of Anticancer Effects of the Analogs of DJ4, a Novel Selective Inhibitor of ROCK and MRCK Kinases” (Pharmaceuticals, 2023)",
  "key": {"[1]": {"assay": "Solubility in culture media at 10 µM (observation)", "format": "physicochemical", "details": "NCI-60 screening", "experimental": "To study the effectiveness of these analogs in a vast range of cancer cell lines, the compounds were subjected to cell viability screening in the NCI-60 human cancer cell line panel representing nine different cancer types (Supplementary Figure S2). Testing of the compounds in such a wide range of cancer types helps identify sensitivity and selectivity of specific types of cancers to the novel compounds. The initial screening was performed at a single concentration of 10 µM. At 10 µM, both DJ110 and DJ-Morpholine were insoluble and were, therefore, ineffective. The parental DJ4 compound was effective in a wide spectrum of cancer cell lines, with breast cancer, NSCLC, and central nervous system cancers displaying the most consistent response. The ovarian cancer cell line NCI/ADR-RES and HCC-2998 colon cancer cells were relatively resistant to DJ4 (IC50 > 10 µM) (Supplementary Figure S2). […] NCI/ADR-RES (ovarian), RPMI-8226, and K-562 (leukemia) cell lines were relatively resistant (29%, 29%, 26% increase in cell number) to DJE4. […] Two CNS cell lines, SNB-75 and SF-539, were the most sensitive in which DJ-Allyl induced the cell death (60% reduction in cell number). NCI/ADR-RES (ovarian), MALME-3M (melanoma), HCC-2998 (colon), RPMI-8226, and K-562 (leukemia) were relatively resistant (~40% increase in cell number) to DJ-Allyl. […]"}, "MDA-MB-231": {"test_system": "MDA-MB-231", "assay": "MTT cell growth assay, 48 h", "format": "cell-based, human", "details": "for IC50: Homo sapiens, MDA-MB-231, 48 h, 2000 cells/well, ±SE, read-out: IC50 from MTT assays", "experimental": "However, as the concentration increased from 2.5 µM onwards, the effect was reversed. Similarly, DJ-Morpholine decreased the cell growth by ~30% at 0.6215 µM, while the effect remained saturated as the concentration increased. This trend was also observed in A549 lung cancer and A375M melanoma cells.\nFigure 7 DJ4 analogs reduce cell growth in melanoma, breast, and lung cancer cells. MTT assay was performed to evaluate the effect of DJ4 analogs on cell growth after 48 h of treatment. IC50 values were calculated with nonlinear least squares regression curve fit by GraphPad prism. […] The error bars indicate SD from triplicates of the experiment.\nThe cytotoxic effect of DJ4 was studied in H1299, H226, A549, H522, H23, and H460 non-small cell lung cancer cells. The cells were seeded into 96-well plates with confluence ([…]). The cells were further treated with DMSO or DJ4 for 72 h. To study the effects of analogs, A549, A375M, and MDA-MB-231 cells were plated with low density (2000 cells/well) in a 96-well plate and grown overnight at 37 °C (with 5% CO2). Cells were treated with the analogs at the concentration of 0–10 µM for 48 h. At the end of the treatment period, cells were incubated with a tetrazolium dye MTT (3-(4,5-dimethylthiazol-2-yl)-2,5-diphenyltetrazolium bromide) reagent (Sigma) at 37 °C for 3 h to develop formazan crystals. The media was siphoned off and crystals were dissolved in DMSO and mixed gently on rocker for 5 min. Absorbance was read at 570 nm and 630 nm (background) wavelength. IC50 values were calculated from non-linear regression curve fit by using GraphPad Prism 5.0 software."}, "[2]": {"test_system": "NCI-60 human cancer cell line panel", "assay": "NCI-60 single concentration screen, whole panel", "format": "cell-based", "details": "single concentration 10 µM", "description": "The selected active compounds were screened at NCI, as a part of In Vitro Cell Line Screening Project (IVCLSP), for their effect on cell growth in 60 different cancer cell lines. The 60 human cancer cell line panel included leukemia, melanoma, non-small cell lung cancer, colon, central nervous system (CNS), ovarian, renal, prostate, and breast cancer cell lines. The detailed procedure and applications of NCI-60 cell line screening can be found at https://dtp.cancer.gov/discovery_development/nci-60/default.htm (accessed on 9 January 2023). Briefly, cells were plated in 96-well plates and incubated for 24 h. One set of cells was fixed with trichloroacetic acid at time 0 h (Tz), and SRB (sulphorhodamine B) assays were performed to quantify the cells. The remaining set of cells were treated with 10 µM single concentration of each compound and incubated for 48 h (Te) after which the cells were fixed, and the SRB assays were performed. Data are presented as percent growth relative to the control as 100% according to the following calculations:\nWhen Te >/= Tz. Growth(%)=Te−Tz/C−Tz∗100 and when Te < Tz. (1) Growth(%)=Te−Tz/Tz∗100\nValues between 0–100 indicate cell growth, zero (0) indicates no cell growth, values < 0 indicate cell death."}, "CDK11": {"test_system": "CDK11", "assay": "KINOMEscan competition binding assay", "set-up": "species or system human", "details": "CDK11, 10 µM", "description": "To examine specificity of DJ4 to different human kinases, we performed a KINOMEscan profiling assay (DiscoverX, Fremont, CA, USA). The KINOMEscan assay consists of a panel of more than 480 kinases of different classes (TK/TKL/STE/CK1/AGC/CAMK/CMGC/others), including clinically relevant mutants, atypical kinases, lipid, and pathogen kinases. […] However, we also recognized the limitations of DJ4 that preclude its clinical development and the need for further optimization of the DJ4 chemotype.\nThe KINOMEscan®, in vitro competition binding assay, was performed by Lead Hunter Discovery Services (DiscoverX Corporation, Fremont, CA, USA) to determine the kinase specificity of DJ4, a novel kinase inhibitor [19, 44]. The KINOMEscan® panel consists of more than 480 kinases, including clinically relevant mutants, lipid, atypical, and pathogen kinases, plus a growing panel of activation-state specific assays. The primary screen was performed using a single concentration of 10 µM, and the results for DJ4 binding interactions are reported as percent of control (%Ctrl). The %Ctrl is calculated as follows: [(DJ4 signal-positive control signal)/(negative control DMSO signal-positive control signal)] x […]. The human kinome tree annotation for DJ4 is plotted with Reaction Biology’s Kinase Mapper and KinMap web interface tool http://kinhub.org/kinmap (accessed on 09 January 2023)."}},
  "note": "Entries after “also recorded” stand apart in the source; their conditions may differ.",
  "data": [
    {"smiles": "O=C1N/C(=N\\Cc2ccccc2)S/C1=C/c1c[nH]c2ncccc12", "note": "[DJ110]", "values": [
      {"measurement": "solubility at 10 µM in culture media", "setting": "[1]", "result": "insoluble; also recorded: sparingly soluble"},
      {"measurement": "IC50", "setting": "MDA-MB-231", "result": "0.65 ± 0.07", "unit": "µM"},
      {"measurement": "effectiveness in NCI-60 screening", "setting": "[2]", "result": "ineffective"}
    ]},
    {"smiles": "C=CC/N=C1\\NC(=O)/C(=C\\c2c[nH]c3ncccc23)S1", "note": "[DJ-Allyl]", "values": [
      {"measurement": "IC50", "setting": "MDA-MB-231", "result": "4.1 ± 1.23", "unit": "µM"}
    ]},
    {"smiles": "O=C1N/C(=N\\CCN2CCOCC2)S/C1=C/c1c[nH]c2ncccc12", "note": "[DJ-Morpholine]", "values": [
      {"measurement": "solubility at 10 µM in culture media", "setting": "[1]", "result": "insoluble; also recorded: sparingly soluble"},
      {"measurement": "IC50", "setting": "MDA-MB-231", "result": "> 10", "unit": "µM"},
      {"measurement": "decrease in cell growth", "setting": "MDA-MB-231; MDA-MB-231, 0.6215 µM, 48 h, effect saturated at higher concentrations", "result": "~ 30%"},
      {"measurement": "effectiveness in NCI-60 screening", "setting": "[2]", "result": "ineffective"}
    ]},
    {"smiles": "CC/N=C1\\NC(=O)/C(=C\\c2c[nH]c3ncccc23)S1", "note": "[DJE4]", "values": [
      {"measurement": "IC50", "setting": "MDA-MB-231", "result": "5.9 ± 1.63", "unit": "µM"}
    ]},
    {"smiles": "O=C1N/C(=N\\CCc2ccccc2)S/C1=C/c1c[nH]c2ncccc12", "note": "[DJ4]", "values": [
      {"measurement": "IC50", "setting": "MDA-MB-231", "result": "2.3 ± 0.23", "unit": "µM"},
      {"measurement": "inhibition (KINOMEscan)", "setting": "CDK11", "result": "more than 98%"}
    ]}
  ]
}
